Experimental data published in paper PMC6675120, “Potent and selective inhibitors for M32 metallocarboxypeptidases identified from high-throughput screening of anti-kinetoplastid chemical boxes” (PLoS Neglected Tropical Diseases, 2019).

Experiments:
[1] = target: TbMCP-1 (Trypanosoma brucei, UniProt Q386R0); experiment: Continuous fluorogenic (FRET) TbMCP-1 assay with Abz-RFFK(Dnp)-OH, primary and secondary screening; type: biochemical; conditions: for TbMCP-1 Hill Slope: four-parameter Hill fit of dose-response curve; for TbMCP-1 2º/1º ratio: secondary (31,5 µM) / primary (25 µM) inhibition; for TbMCP-1 Primary screening Inhibition (%): single inhibitor concentration 25 µM; for TbMCP-1 Secondary screening Inhibition (%): single inhibitor concentration 31,5 µM
Method: (§1) TcMCP-1 (MEROPS ID: M32.003) and TbMCP-1 were expressed as GST fusion proteins in E. coli BL21 (DE3) Codon Plus and purified as previously described.
(§2) TbMCP-1 and TcMCP-1 activities were assayed fluorometrically with Abz-RFFK(Dnp)-OH and Abz-LKFK(Dnp)-OH substrates, respectively, in 100 mM MOPS pH 7,2 containing 0,01% Triton X-100. Assays were performed in solid black 384-well plates (final reaction volume ~80 μL) and the hydrolysis of the K(Dnp)-OH group was monitored continuously at 30 °C with a Beckman Coulter DTX 880 Multimode Reader (Radnor, Pennsylvania, USA) using standard 320 nm excitation and 420 nm emission filter set.
(§3) In all cases, EDTA (final concentration 31,25 mM) was used as positive inhibition control.
(§4) Then, 40 μL of 100 mM MOPS, 0,01% Triton X-100 pH 7,2 containing TbMCP-1 (2,50 nM) or TcMCP-1 (0,34 nM) were added to each well, plates were homogenized (30 seg, orbital, medium intensity) and each well subjected to a single autofluorescence read (ex/em = 320/420 nm). Plates were incubated in darkness for 15 min at 30 °C and then 40 μL of Abz-RFFK(Dnp)-OH (4 μM) or Abz-LKFK(Dnp)-OH (0,8 μM) in assay buffer were added to each well to start the reaction. After homogenization (30 seg, orbital, medium intensity), the fluorescence of the Abz group (ortho-aminobenzoic acid) (ex/em = 320/420 nm) was acquired kinetically for each well (8 read cycles, one cycle every 300 seconds). Considering our previous experiences, the auto-fluorescent cut-off was arbitrarily set at 2x10^5 RFU to discard highly interfering compounds. All compounds were assayed in singlet (without replicates) due to the limited availability of stocks.
(§5) Raw screening measurements were used to determine the slope (dF/dt) of progression curves by linear regression for control and non-interfering compound wells. In the case of control-dependent hit selection criteria, percent inhibition percentage (%Inh) was calculated for each compound according to the following equation: Inh=100∙[1−(dF/dt^WELL−μ^C−)/(μ^C+−μ^C−)] (1) where dF/dt^WELL represents the slope of each compound well and μ^C+ and μ^C− the average of MCP (no-inhibition) and substrate (no-enzyme) controls, respectively.
(§6) To avoid any positional and/or association bias, we randomly defined the row position for each compound. One μL of compounds stock (10 mM in DMSO) and EDTA (31,25 mM) were added to the first well of column 1, followed by addition of 40 μL of 100 mM MOPS, 0,01% Triton X-100 pH 7,2 buffer. After addition of 20 μL of the same buffer to subsequent wells of the plate, 22 serial 2-fold dilutions were made horizontally. The last two positions of every row were used, alternatively, for C^+ and C^− controls to reduce any positional and/or association bias. Then, 20 μL of activity buffer containing TbMCP-1 or TcMCP-1 were added to each well, except for those corresponding to C^−; completed with 20 μL of activity buffer. After homogenization, 15 minutes of incubation at 30°C and autofluorescence measurement, the substrate (in activity buffer) was added to the previous mix. Data collection and processing were performed exactly as described above. Percentage of M32 MCPs residual activity was calculated for each condition according to the following equation: %Res.Act^MCP=100∙[(dF/dt^WELL−μ^C−)/(μ^C+−μ^C−)] (2) where dF/dt^WELL represents the slope of each compound well and μ^C+ and μ^C− the average of MCP (no-inhibition) and substrate (no-enzyme) controls, respectively.

[2] = target: TcMCP-1 (Trypanosoma cruzi, UniProt Q6ZXC0); experiment: Continuous fluorogenic (FRET) TcMCP-1 assay with Abz-LKFK(Dnp)-OH, primary and secondary screening; type: biochemical; conditions: for TcMCP-1 Hill Slope: four-parameter Hill fit of dose-response curve; for TcMCP-1 2º/1º ratio: secondary (31,5 µM) / primary (25 µM) inhibition; for TcMCP-1 Primary screening Inhibition (%): single inhibitor concentration 25 µM; for TcMCP-1 Secondary screening Inhibition (%): single inhibitor concentration 31,5 µM
Method: as §1, §2, §3, §4, §5
as §6, with “Compounds selected from primary screening were re-tested in a dose-response manner (final concentration ranging from […] to 62,5 μM) using identical assay conditions. To” for “To”

Chain of TcMCP-1 (Q6ZXC0 entry or part of it): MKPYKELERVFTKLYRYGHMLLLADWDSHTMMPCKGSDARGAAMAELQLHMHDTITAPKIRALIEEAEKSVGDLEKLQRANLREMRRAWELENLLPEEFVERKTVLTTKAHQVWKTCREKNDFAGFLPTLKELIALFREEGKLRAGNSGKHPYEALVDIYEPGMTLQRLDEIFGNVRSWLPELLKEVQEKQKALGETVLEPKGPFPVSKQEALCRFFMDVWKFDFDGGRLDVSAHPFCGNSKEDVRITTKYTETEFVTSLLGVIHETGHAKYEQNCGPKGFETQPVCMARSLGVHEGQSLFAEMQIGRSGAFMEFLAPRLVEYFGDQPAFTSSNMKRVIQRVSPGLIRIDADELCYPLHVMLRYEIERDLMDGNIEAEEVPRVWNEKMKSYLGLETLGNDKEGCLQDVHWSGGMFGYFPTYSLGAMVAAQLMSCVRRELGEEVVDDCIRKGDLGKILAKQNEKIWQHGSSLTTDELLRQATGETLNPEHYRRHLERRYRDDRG
Chain of TbMCP-1 (Q386R0 entry or part of it): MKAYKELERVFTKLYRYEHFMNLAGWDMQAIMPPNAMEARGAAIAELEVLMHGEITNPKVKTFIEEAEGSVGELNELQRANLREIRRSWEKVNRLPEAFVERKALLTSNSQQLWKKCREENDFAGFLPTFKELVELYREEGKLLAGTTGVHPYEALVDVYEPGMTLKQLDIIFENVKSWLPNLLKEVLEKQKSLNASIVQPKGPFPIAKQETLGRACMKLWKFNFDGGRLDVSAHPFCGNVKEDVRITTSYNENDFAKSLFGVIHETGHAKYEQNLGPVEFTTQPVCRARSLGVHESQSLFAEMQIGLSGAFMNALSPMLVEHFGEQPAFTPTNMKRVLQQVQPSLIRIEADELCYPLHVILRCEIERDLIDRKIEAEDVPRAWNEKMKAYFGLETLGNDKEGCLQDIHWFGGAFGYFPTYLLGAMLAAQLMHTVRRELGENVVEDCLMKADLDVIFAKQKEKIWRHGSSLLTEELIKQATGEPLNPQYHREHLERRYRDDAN

COc1ccc2ncc(Cl)c(CCN3CC[C@@H](NCc4cc5c(cn4)OCS5)[C@H](O)C3)c2n1 [TCMDC-143513]
IC50 [1]: 28.3 µM
TbMCP-1 Hill Slope [1]: -0,8371
TbMCP-1 2º/1º ratio [1]: 0,76
TbMCP-1 Primary screening Inhibition (%) [1]: 56,08%
TbMCP-1 Secondary screening Inhibition (%) [1]: 42,64%
IC50 [2]: 13.5 µM
TcMCP-1 Hill Slope [2]: -0,9734
TcMCP-1 2º/1º ratio [2]: 1,07
TcMCP-1 Primary screening Inhibition (%) [2]: 65,65%
TcMCP-1 Secondary screening Inhibition (%) [2]: 70,48%

C[C@@H](Oc1cc(-n2cnc3ccc(O[C@H]4CCNC4)cc32)sc1C(N)=O)c1ccccc1Cl [TCMDC-143515]
IC50 [1]: 31.7 µM
TbMCP-1 Hill Slope [1]: -0,8447
TbMCP-1 2º/1º ratio [1]: 1,26
TbMCP-1 Primary screening Inhibition (%) [1]: 40,42%
TbMCP-1 Secondary screening Inhibition (%) [1]: 50,90%
IC50 [2]: 21.8 µM
TcMCP-1 Hill Slope [2]: -1,149
TcMCP-1 2º/1º ratio [2]: 1,02
TcMCP-1 Primary screening Inhibition (%) [2]: 54,26%
TcMCP-1 Secondary screening Inhibition (%) [2]: 55,47%

CN(CC1CCCO1)S(=O)(=O)c1ccc(C(=O)Nc2nc(-c3ccccn3)cs2)cc1 (stereo not drawn) [TCMDC-143551]
IC50 [1]: 34.5 µM
TbMCP-1 Hill Slope [1]: -1,562
TbMCP-1 2º/1º ratio [1]: 0,99
TbMCP-1 Primary screening Inhibition (%) [1]: 42,28%
TbMCP-1 Secondary screening Inhibition (%) [1]: 41,97%
IC50 [2]: 13.8 µM
TcMCP-1 Hill Slope [2]: -1,834
TcMCP-1 2º/1º ratio [2]: 1,14
TcMCP-1 Primary screening Inhibition (%) [2]: 65,04%
TcMCP-1 Secondary screening Inhibition (%) [2]: 74,11%

Cc1cc(C)c(C#N)c(SCC(=O)c2ccc3c(c2)OCO3)n1 [TCMDC-143625]
TbMCP-1 2º/1º ratio [1]: 0,35
TbMCP-1 Primary screening Inhibition (%) [1]: 49,55%
TbMCP-1 Secondary screening Inhibition (%) [1]: 17,11%
TcMCP-1 2º/1º ratio [2]: 0,45
TcMCP-1 Primary screening Inhibition (%) [2]: 43,83%
TcMCP-1 Secondary screening Inhibition (%) [2]: 19,89%
